{
  "source": "patent US20250134891A1",
  "about": "“USE OF SOS1 INHIBITORS WITH MTOR INHIBITORS TO TREAT CANCERS” (Revolution Medicines, Inc., priority 2021, published 2025)",
  "key": {"[1]": {"system": "murine pancreatic ductal adenocarcinoma PAN02 PTPN11^G503V", "assay": "Tumor growth in vivo, PAN02 PTPN11^G503V syngeneic model", "parameters": "species or system mouse", "conditions": "single agent", "procedure": "The combinatorial effects of Compound SOS1-(C) with RM-006 (also known as RMC-6272) on tumor cell growth in vivo were evaluated in the murine pancreatic ductal adenocarcinoma PAN02 PTPN11^G503V syngeneic model using female C57BL/6J mice (6-7 weeks old). Mice were implanted with PAN02 tumor cells in PBS (5×10^6 cells/mouse) subcutaneously in the flank. Once tumors reached an average size of ˜145 mm^3, mice were randomized to treatment groups to start the administration of test articles or control. SOS1-(C) treatment was administered daily by oral gavage and RM-006 was administered weekly by intra-peritoneal injection. Body weight and tumor volumes (using calipers) were measured twice weekly until study endpoint. Regressions (R) are defined as decrease of 10% or more from initial tumor volume."}, "[2]": {"system": "LN229 human glioblastoma PTPN11^A72S/WT", "assay": "Tumor growth in vivo, LN229 PTPN11^A72S/WT glioblastoma CDX model", "conditions": "single agent; 3 mg/kg IP weekly; athymic nude mice", "procedure": "The combinatorial effects of Compound SOS1-(C) with RM-006 (also known as RMC-6272) on tumor cell growth in a human model of PTPN11-mutant glioblastoma, LN229 PTPN11^A72S/WT. 6-7 week athymic nude mice were implanted with LN229 in 50% matrigel (10×10^6 cells/mouse) subcutaneously in the flank. Once tumors reached an average size of 200 mm^3, mice were randomized into treatment groups (n=10/group) to start the administration of test articles or control. SOS1-(C) treatment was administered daily by oral gavage and RM-006 was administered weekly by intra-peritoneal injection. Body weight and tumor volume (using calipers) was measured twice weekly until study endpoint."}},
  "data": [
    {"smiles": "CO[C@H]1C[C@@H]2CC[C@@H](C)[C@@](O)(O2)C(=O)C(=O)N2CCCC[C@H]2C(=O)O[C@H]([C@H](C)C[C@@H]2CC[C@@H](OC(=O)NCCOCCOCCOCCOCCOCCOCCOCCOCCC(=O)NCCS(=O)(=O)c3ccc(C(=O)N4CCOc5ccc(-c6ccc(N)nc6)cc5C4)c(C)c3F)[C@H](OC)C2)C[C@@H](O)[C@H](C)/C=C(\\C)[C@@H](O)[C@@H](OC)C(=O)[C@H](C)C[C@H](C)/C=C/C=CC=C1C", "note": "[RM-006]", "values": [
      {"measurement": "tumor growth inhibition (TGI)", "setting": "[1]; 3 mg/kg IP weekly, female C57BL/6J mice", "value": 11, "unit": "%"},
      {"measurement": "regressions (decrease of 10% or more from initial tumor volume)", "setting": "[1]; any timepoint in this study", "value": "did not induce regressions"},
      {"measurement": "tumor growth inhibition (TGI)", "setting": "[2]", "value": 72, "unit": "%"}
    ]}
  ]
}
